Data published in the Bradley open melting point set (2014).
Where “and” joins values, the source holds several entries; their conditions need not be identical. Identical values can stand only once.

SMILES | melting point
Nc1ccc(-c2ccc3nn(-c4ccccc4)nc3c2)cc1 [4-(2-phenyl-2H-benzotriazol-5-yl)aniline] | 143 °C
COc1ccc(C=C2N=C(c3ccccc3)OC2=O)cc1 [4-(4-methoxybenzylidene)-2-phenyl-1,3-oxazol-5(4H)-one] | 152 °C
CCCN(CCC)S(=O)(=O)c1ccc(C(=O)O)cc1 [4-(Dipropylsulfamoyl)benzoic acid] | 195 °C
O=C(OCc1ccccc1)c1ccc(B(O)O)cc1 [4-(benzyloxycarbonyl)benzeneboronic acid] | 190 °C
OB(O)c1ccc(N(Cc2ccccc2)Cc2ccccc2)cc1 [4-(dibenzylamino)benzeneboronic acid] | 186 °C
CS(=O)(=O)c1ccc(B(O)O)cc1 [4-(methylsulfonyl)benzeneboronic acid] | 200 °C
O=C(O)Cc1ccc(OC(F)(F)F)cc1 [4-(trifluoromethoxy)phenylacetic acid] | 87 °C
Nc1ccc(C(F)(F)F)cc1 [4-(trifluoromethyl)aniline] | 7 °C
O=Cc1ccc(C(F)(F)F)cc1 [4-(trifluoromethyl)benzaldehyde] [listing 1 of 2 here] | 1.5 °C
O=Cc1ccc(C(F)(F)F)cc1 [4-(trifluoromethyl)benzaldehyde] [listing 2 of 2 here] | 2 °C
OB(O)c1ccc(C(F)(F)F)cc1 [4-(trifluoromethyl)benzeneboronic acid] | 240 °C
Cc1noc(NS(=O)(=O)c2ccc(N)cc2)c1C [4-Amino-N-(3,4-dimethyl-1,2-oxazol-5-yl)benzenesulfonamide] | 196 °C
Nc1ccc(Br)cc1 [4-Bromoaniline] | 64 °C
Cc1cc(O)ccc1Cl [4-Chloro-3-methylphenol] | 67 °C
Oc1ccc(Cl)cc1 [4-Chlorophenol] | 44 °C
COc1cc(C=O)ccc1O [4-Hydroxy-3-methoxybenzaldehyde] | 82 °C
CC(=O)CC(C)(C)O [4-Hydroxy-4-methylpentan-2-one] | -50 °C
Cc1ccc(N)c([N+](=O)[O-])c1 [4-Methyl-2-nitroaniline] | 117 °C
Cc1ccc(N)c(N)c1 [4-Methylbenzene-1,2-diamine] | 89.5 °C
Cc1ccc(C(=O)c2ccccc2)cc1 [4-Methylbenzophenone] | 50 °C
Nc1ccc([N+](=O)[O-])cc1 [4-Nitroaniline] | 148 °C
COc1ccccc1N1CCN(CCCC(=O)c2ccc(F)cc2)CC1 [4-[4-(o-Methoxyphenyl)-1-piperazinyl]-p-fluorobutyrophenone] | 68 °C
CCCCCCCC(=O)Oc1ccc(/N=N/c2ccc(CCCC)cc2)cc1 [4-[(E)-(4-butylphenyl)diazenyl]phenyl octanoate] | 64 °C
CN(CCCC(=O)c1cccnc1)N=O [4-[Methyl(nitroso)amino]-1-(pyridin-3-yl)butan-1-one] | 72 °C
Nc1nc(O)nc2c1cnn2CCO [4-amino-1-(2-hydroxyethyl)-1H-pyrazolo[3,4-d]pyrimidin-6-ol] | 308 °C
Nc1ccc(-c2ccccc2)cc1 [4-aminobiphenyl] | 54 °C
c1ccc(Cc2ccc(-c3ccccc3)cc2)cc1 [4-benzylbiphenyl] | 86 °C

SMILES | melting point
Fc1cc(OCc2ccccc2)ccc1Br [4-benzyloxy-1-bromo-2-fluorobenzene] | 34 °C
O=C(O)c1ccc(OCc2ccccc2)cc1F [4-benzyloxy-2-fluorobenzoic acid] | 167 °C
c1ccc(CC2CCNCC2)cc1 [4-benzylpiperidine] | 7 °C
OCc1ccc(-c2ccccc2)cc1 [4-biphenylmethanol] | 46 °C
Cc1cc(O)c(C(C)C)cc1Cl [4-chloro-2-isopropyl-5-methylphenol] | 60 °C
COc1cc(Cl)ccc1C(=O)O [4-chloro-2-methoxybenzoic acid] | 147 °C
Cc1cc(Cl)ccc1O [4-chloro-2-methylphenol] | 47 °C
Nc1ccc(Cl)cc1[N+](=O)[O-] [4-chloro-2-nitroaniline] [listing 1 of 2 here] | 118 °C
Nc1ccc(Cl)cc1[N+](=O)[O-] [4-chloro-2-nitroaniline] [listing 2 of 2 here] | 116 °C
Cc1cc(O)ccc1Cl [4-chloro-3-methylphenol] | 67 °C
Nc1ccc(Cl)cc1 [4-chloroaniline] | 70 °C
OB(O)c1ccc(Cl)cc1 [4-chlorobenzeneboronic acid] | 273 °C
O=C(Cl)CCCCl [4-chlorobutyryl chloride] | -49 °C
CC(C)CCC[C@@H](C)[C@H]1CC[C@H]2[C@@H]3CCC4=CC(=O)CC[C@]4(C)[C@H]3CC[C@]12C [4-cholesten-3-one] | 80 °C
CC(C)(c1ccccc1)c1ccc(O)cc1 [4-cumylphenol] | 72 °C
N#Cc1ccc(C=O)cc1 [4-cyanobenzaldehyde] | 102 °C
CCN(CC)c1ccc(C=O)cc1 [4-diethylaminobenzaldehyde] | 40 °C
Cc1ccc(/N=N/c2ccc(N(C)C)cc2)cc1 [4-dimethylamino-4'-methylazobenzene] | 166 °C
CN(C)c1ccc(/N=N/c2ccc(N=C=S)cc2)cc1 [4-dimethylaminoazobenzene-4'-isothiocyanate] | 170 °C
CN(C)c1ccc(C=O)cc1 [4-dimethylaminobenzaldehyde] | 74 °C
CCOc1ccc(NC(C)=O)cc1 [4-ethoxyacetanilide] | 135 °C
OB(O)c1ccc(F)cc1C(F)(F)F [4-fluoro-2-(trifluoromethyl)benzeneboronic acid] | 185 °C
COc1cc(F)ccc1C(=O)O [4-fluoro-2-methoxybenzoic acid] | 135 °C
O=C(O)COc1ccc(F)cc1 [4-fluorophenoxyacetic acid] | 105 °C
O=Cc1ccc(B(O)O)cc1 [4-formylbenzeneboronic acid] | 263 °C
CC(=O)CC(C)(C)O [4-hydroxy-4-methyl-2-pentanone] | -47 °C
Cc1cccc2c(O)cc(C(F)(F)F)nc12 [4-hydroxy-8-methyl-2-(trifluoromethyl)quinoline] | 128 °C

The next lines start with the values.

melting point | SMILES
164 °C | Oc1ccc(-c2nccs2)cc1 [4-(2-thiazolyl)phenol]
108 °C | O=C(c1ccncc1)c1ccc(Cl)cc1 [4-(4-chlorobenzoyl)pyridine]
30 °C | CCOC(=O)c1ccc(N=C=O)cc1 [4-(ethoxycarbonyl)phenyl isocyanate]
223 °C | COC(=O)c1ccc(B(O)O)cc1 [4-(methoxycarbonyl)benzeneboronic acid]
159 °C | CNc1ccc(C(=O)O)cc1 [4-(methylamino)benzoic acid]
-4 °C | C=CCc1ccc(OC)c(OC)c1 [4-Allyl-1,2-dimethoxybenzene]
253 °C | O=C(O)c1ccc(Br)cc1 [4-Bromobenzoic acid]
46 °C | O=Cc1ccc(Cl)cc1 [4-Chlorobenzaldehyde]
101 °C | ON=Cc1ccc(Cl)cc1 [4-Chlorobenzaldoxime]
107 °C | Oc1ccc(Cl)c(O)c1 [4-Chlorobenzene-1,3-diol]
69.8 °C | CCCCCCCc1ccc(C(=O)O)cc1 [4-Heptylbenzoic acid]
61 °C | Nc1ccc(I)cc1 [4-Iodoaniline]
184 °C | COc1ccc(C(=O)O)cc1 [4-Methoxybenzoic acid]
31 °C | Cc1ccc(S)c(S)c1 [4-Methylbenzene-1,2-dithiol]
78 °C | CC(=O)Oc1ccc([N+](=O)[O-])cc1 [4-Nitrophenyl acetate]
80 °C | O=[N+]([O-])c1ccc(OCCN2CCOCC2)cc1 [4-[2-(4-nitrophenoxy)ethyl]morpholine]
200 °C | O=[N+]([O-])c1ccc(N=Nc2ccc(O)cc2O)cc1 [4-[(4-Nitrophenyl)diazenyl]benzene-1,3-diol]
260 °C | CC(=O)Nc1ccc(C(=O)O)cc1 [4-acetamidobenzoic acid]
104 °C | CC(=O)c1cnn(-c2ccccc2)c1C [4-acetyl-5-methyl-1-phenyl-1h-pyrazole]
79 °C | CC(=O)c1ccc(N=C=S)cc1 [4-acetylphenyl isothiocyanate]

melting point | SMILES
255 °C | N#Cc1cncnc1N [4-aminopyrimidine-5-carbonitrile]
24 °C | C=Cc1ccc(N)cc1 [4-aminostyrene]
45 °C | Cc1cc(Br)ccc1N=C=S [4-bromo-2-methylphenyl isothiocyanate]
55 °C | CN(C)c1ccc(Br)cc1 [4-bromo-n,n-dimethylaniline]
192 °C | NC(=O)c1ccc(Br)cc1 [4-bromobenzamide]
157 °C | Oc1ccc(Cl)cc1-c1cc[nH]n1 [4-chloro-2-(1h-pyrazol-3-yl)phenol]
194 °C | Cc1cc(Cl)ccc1B(O)O [4-chloro-2-methylbenzeneboronic acid]
103 °C | Nc1ccc(Cl)c([N+](=O)[O-])c1 [4-chloro-3-nitroaniline]
183 °C | O=C(O)c1ccc(Cl)c([N+](=O)[O-])c1 [4-chloro-3-nitrobenzoic acid]
178 °C | NC(=O)c1ccc(Cl)cc1 [4-chlorobenzamide]
146 °C | NS(=O)(=O)c1ccc(Cl)cc1 [4-chlorobenzenesulfonamide]
106 °C | O=C(O)Cc1ccc(Cl)cc1 [4-chlorophenylacetic acid]
8 °C | Cc1ccc(Cl)cc1 [4-chlorotoluene]
121 °C | N#Cc1ccncc1I [4-cyano-3-iodopyridine]
-5 °C | CCc1ccc(N)cc1 [4-ethylaniline]
30 °C | Cc1cc(O)ccc1F [4-fluoro-3-methylphenol]
142 °C | O=Cc1ccc(O)c([N+](=O)[O-])c1 [4-hydroxy-3-nitrobenzaldehyde]
183 °C | O=C(O)c1ccc(O)c([N+](=O)[O-])c1 [4-hydroxy-3-nitrobenzoic acid]
161 °C | NC(=O)c1ccc(O)cc1 [4-hydroxybenzamide]
214 °C and 215 °C | O=C(O)c1ccc(O)cc1 [4-hydroxybenzoic acid]
